“Also recorded” adds a separate entry of the source. Each block holds one compound with its values, some of them ahead of it.
How the values were obtained:
[1] = system: MCF-7 cells; assay: EMT morphology by phase contrast microscopy in MCF-IM model; type: cell-based, human
Experimental: The adherent human mammary adenocarcinoma MCF-7 and MDA-MB-231 cells were cultured in low glucose DMEM (Gibco) and both supplemented with 10% FCS, 2 mM L-glutamine and 0.1% PSN antibiotics. […] For Bisindolylmaleimide-I (Calbiochem) or PKC-θ peptide inhibitor (Calbiochem) studies, cells were pre-treated with 1 μM or 30 μM of inhibitor respectively for 1 h prior to stimulation in MCF-7 cells. In case of MDA-MB-231, cells were treated with 4 μM or 30 μM Bisindolylmaleimide-I or PKC-θ peptide inhibitor respectively.
(§1) phase contrast microscopy was performed where cells were viewed at ×4 magnification (wound healing assay) or ×10 magnification (EMT) using an Olympus fluorescence 1X^71 microscope (Olympus) and images were captured using DPController software (2002 Olympus Optical Co. LTD) and analysed using Photoshop CS3 (Adobe Systems Inc.). Scans were taken with a 10 μm scale bar.

[2] = system: MCF-7 cells; assay: FACS analysis of CD44high/CD24low CSC-like subpopulation in MCF-IM model; type: cell-based, human; conditions: for CSC formation (CD44high/CD24low, FACS): compound 27 1 uM for 24 hours pre-treatment, PMA 0.65 ng/ml 60 h; for CD44 high CD24 low CSC-like subpopulation (FACS): bisindolylmaleimide-I 100 nm and 1 μM or Go6976 1 μM prior to PMA 60 hrs
Experimental: (§2) The adherent human mammary adenocarcinoma MCF-7 and MDA-MB-231 cells were cultured in low glucose DMEM (Gibco) and both supplemented with 10% FCS, 2 mM L-glutamine and 0.1% PSN antibiotics. Cells were stimulated with 0.65 ng/ml of phorbol 12-myristate 13-acetate (PMA) (Sigma-Aldrich) or 20 ng/ml of TGF-β (R&D systems) for the times indicated. For Bisindolylmaleimide-I (Calbiochem) or PKC-θ peptide inhibitor (Calbiochem) studies, cells were pre-treated with 1 μM or 30 μM of inhibitor respectively for 1 h prior to stimulation in MCF-7 cells. In case of MDA-MB-231, cells were treated with 4 μM or 30 μM Bisindolylmaleimide-I or PKC-θ peptide inhibitor respectively.
(§3) To separate CSC from non-CSC (NCSC), florescence activated cell sorting (FACS) was performed on single-cell suspensions that were stained with anti-CD44-APC (559942, BD Biosciences) and anti-CD24-PE antibodies (555428, BD Biosciences) along with Hoechst 33258 to monitor cell viability. As used throughout this work, CSC are defined by minority CD44^high/CD24^low, whereas NCSC are defined by rest of the cell populations.

[3] = system: MCF-7 cells; assay: TaqMan real time PCR transcript analysis of inducible EMT/CSC genes in MCF-IM model; type: cell-based, human; conditions: for transcription of key inducible EMT/CSC genes (laminin-5, uPAR, CD44): 1 hour prior to PMA 60 hrs
Description: (§4) Human TaqMan™ primer sets used were: CD44, Hs00153304, CD24, Hs00273561, uPAR, Hs00182181, Laminin-5, Hs00194333, Zeb-1, Hs00611018, Fibronectin, Hs00415006 and Integrin-β, Hs00168458 (Applied Biosystems). Primers used for SYBR Green real-time PGR are: Zeb1 (sense: 5′-[…]-3′ and antisense: 5′-[…]-3′) and Cyclophilin A (sense: 5′-[…]-3′ and antisense: 5′-CACCACATGCTTGCCATCC-3′).
(§5) Total RNA was extracted using TRIzol® Reagent (Invitrogen) and first strand cDNA was synthesized using the Superscript™ III RNase H-reverse transcriptase kit (Invitrogen). TaqMan® Gene Expression Assays and SYBR Green real-time PCR were performed as previously described (Sutcliffe et al., 2009, Molecular and Cellular Biology, 29: 1972-86). MicroRNA assays were performed with the TaqMan® MicroRNA Reverse Transcription Kit (ABI 4366596) and the data were normalized to RNU6B as previously described in Sutcliffe et al. ([…], Molecular Cell 41:704-719).

[4] = system: NF-κB p65; assay: Immunoblotting of MCF-IM nuclear and cytoplasmic fractions for NF-κB p65; type: cell-based, human
Experimental: Immunoblot analysis was performed according to the manufacturer's protocol and as previously described (Rao et al., 2003 c-Rel is required for chromatin remodeling across the IL-2 gene promoter. Journal of immunology 170:3724-3731.) with anti-PKC-θ (sc-212, SantaCruz), anti-p65 (ab7970, Abcam), anti-p65 phospho (ser-468) (3039, Cell Signaling), anti-p65 phospho (ser-536) (3031, Cell Signaling) and RNA Pol II(c-21) (ab817, Abcam) antibodies.

[5] = target: PKC-θ (Homo sapiens, UniProt Q04759); assay: PKC ELISA-based kinase assay, in-vitro PKC-θ activity; type: biochemical; conditions: FIG. 6A
Experimental: (§6) PKC activity assay were purchased from Enzo Life Sciences (DI-EKS-420A) and assays were performed according to the manufacture's protocol as previously described (Sutcliffe, 2012, supra).
(§7) PKC-θ and PKC-β activity assays (Enzo Life Sciences; DI-EKS-420A) were performed according to the manufacturer's protocol and as previously described (Sutcliffe et. Al., 2012. Chromatinized Protein Kinase C-theta: Can It Escape the Clutches of NF-kappaB? Front Immunol 3:260).

[6] = system: NF-κB p50 and p65; assay: NF-κB activity assay (TransAM NF-κB Family kit), MCF-IM nuclear extracts; type: cell-based, human; conditions: MCF-IM treated with C27 vs vehicle
Experimental: TransAM NF-κB Family kit was used for NF-κB activity assays (43296, Active Motif). Assays were performed according to the manufacturer's guidelines. 5 μg protein from MDA-MB231 or MCF-IM derived whole cell, nuclear and cytoplasmic extracts were used in triplicate for the assays. Raji nuclear extract was used as a positive control Wild-type and mutated consensus oligonucleotides were also used as a negative and positive controls respectively.

[7] = system: PKC; assay: PKC ELISA-based kinase assay of nuclear or cytoplasmic extract from MCF-IM; type: cell-based, human; conditions: assays without specific immunoprecipitates, global PKC activity (FIG. 6B)
Experimental: as §6, §7

[8] = system: MDA-MB 231 cells; assay: FACS analysis of CD44high/CD24low CSC-like subpopulation in basal/metastatic model; type: cell-based, human; conditions: bisindolylmaleimide-I 4 μM
Experimental: as §2, §3

[9] = system: MDA-MB 231 cells; assay: TaqMan real time PCR transcript analysis of EMT/CSC genes in basal/metastatic model; type: cell-based, human; conditions: bisindolylmaleimide-I 4 μM
Description: as §4, §5

[10] = system: MDA-MB 231 cells; assay: EMT morphology by phase contrast microscopy in basal/metastatic model; type: cell-based, human; conditions: Bisindolylmaleimide 4 μM
Experimental: as §2, §1

[11] = system: MCF-7 cells; assay: Mammosphere assay in MCF-IM model; type: cell-based, human; conditions: 1 μM for 1 hr prior to PMA stimulation, 6 days; mammospheres larger than 60 μm counted
Experimental: Mammosphere culture media components were purchased from StemCell Technologies and mammosphere assays were performed as recommended by the manufacturer's guidelines. Briefly, 40,000 cells/2 ml cell dilutions were then prepared and 2 ml of cells were seeded in the 6 well-ultralow adherent, flat bottom plates (Costar). Mammospheres larger than 60 μm were counted per well on day 7 and pictures were taken.

[12] = system: PKC-θ; assay: ChIP assay of PKC-θ chromatin association at CSC inducible gene promoters in MCF-IM model; type: cell-based, human
Experimental: ChIP buffers were purchased from Upstate Biotechnology and ChIP assays were performed according to the protocol supplied by Upstate Biotechnology as previously described (Sutcliffe et al., 2011, Molecular Cell. 41:704-719 ). Antibody used were: Anti-PKC-θ (Santa Cruz, sc-212), Anti-PKC-θ Phospho s695 (Abcam, ab76568) and Pol II c-21 (Abcam, ab817), Promoter primers used for RT-PCR were human CD44 (Fwd: […], Rev: […]), uPAR(Fwd: […], Rev: […]) and IL-6 (Fwd: […], Rev: […]). Sequential ChIP assays performed as described previously by Sutcliffe et al., (2011, Molecular Cell. 41: 704-719).

PKC-θ (Homo sapiens, UniProt Q04759), sequence (Q04759 whole entry): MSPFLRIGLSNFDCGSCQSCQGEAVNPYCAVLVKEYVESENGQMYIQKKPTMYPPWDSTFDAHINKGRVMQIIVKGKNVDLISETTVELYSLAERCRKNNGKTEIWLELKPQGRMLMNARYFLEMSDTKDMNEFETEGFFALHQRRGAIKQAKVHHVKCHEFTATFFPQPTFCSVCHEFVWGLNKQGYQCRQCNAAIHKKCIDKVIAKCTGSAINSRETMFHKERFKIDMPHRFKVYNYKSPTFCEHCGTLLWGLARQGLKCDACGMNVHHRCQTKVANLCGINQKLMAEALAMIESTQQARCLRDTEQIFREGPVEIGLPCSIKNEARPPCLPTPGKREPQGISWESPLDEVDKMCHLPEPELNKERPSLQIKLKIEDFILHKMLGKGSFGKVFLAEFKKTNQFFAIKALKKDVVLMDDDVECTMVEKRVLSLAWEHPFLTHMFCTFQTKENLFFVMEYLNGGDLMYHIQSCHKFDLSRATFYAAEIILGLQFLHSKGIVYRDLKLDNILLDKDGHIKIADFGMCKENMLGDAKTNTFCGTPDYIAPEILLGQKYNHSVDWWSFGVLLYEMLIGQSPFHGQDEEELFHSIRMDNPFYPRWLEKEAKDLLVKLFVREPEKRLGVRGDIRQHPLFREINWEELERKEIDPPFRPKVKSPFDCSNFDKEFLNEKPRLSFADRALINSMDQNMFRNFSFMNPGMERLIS

SMILES: CCCCCCCCCCCCCC(=O)O[C@@H]1[C@@H](C)[C@@]2(O)[C@@H](C=C(CO)C[C@]3(O)C(=O)C(C)=C[C@@H]23)[C@@H]2C(C)(C)[C@]12OC(C)=O [PMA, Phorbol 12-Myristate 13-Acetate]
EMT (percentage of cells undergoing EMT, morphology) ([1]; PMA 20 ng/mL for 60 hr, compared with TNF-α, EGF, IL-6, TGF-β): results in maximal EMT; also recorded: caused highest EMT changes
generation of CD44high/CD24low CSC like cells ([2]; induction of PKC pathway by PMA 0.65 ng/mL 60 hr): results in the generation of CD44^high/CD24^low-CSC like cells

PKC-θ activity, in-vitro PKC-θ activity assay [5]: abrogated PKC-θ activity
PKC-θ activity in nuclear and cellular extracts from MCF-IM pre-treated with C27 [7]: abrogated PKC-θ activity
SMILES: CC(C)[C@@](C)(O)[C@@H]1CN(c2nc(-c3n[nH]c4ncccc34)c(F)cc2Cl)CCN1 [Compound C27]
transcription of CSC inducible genes ([3]; C27 treatment, FIG. 6D): abolished
p65 in the cytoplasmic fraction ([4]; C27 treated epithelial and mesenchymal cells, cytoplasmic fraction): global accumulation of p65 was observed in the cytoplasmic fraction
p65 phosphorylation at serine 468 in nuclear extracts ([4]; MCF-IM nuclear extracts, with or without compound 27): this phosphorylation was inhibited
p65 abundance in the nuclei (pan-p65 antibody) ([4]; epithelial and mesenchymal state, nuclear fraction): inhibited p65 abundance in the nuclei
p50 nuclear activity [6]: significantly decreased
p65 nuclear activity [6]: significantly decreased
CSC formation (CD44high/CD24low, FACS) [2]: abolished CSC formation
CSC formation (CD44high/CD24low, FACS) ([2]; listed as compound 27): prevents CSC formation

SMILES: CN(C)CCCn1cc(C2=C(c3c[nH]c4ccccc34)C(=O)NC2=O)c2ccccc21 [bisindolylmaleimide-I, Bisindolylmaleimide-I]
EMT (morphology) ([1]; bisindolylmaleimide 1 μM, 1 hr pre-treatment before PMA stimulation 60 hrs): inhibits EMT
transcription of key inducible EMT/CSC genes (laminin-5, uPAR, CD44) ([3]; 100 nM): cannot inhibit transcription of key inducible EMT/CSC genes
transcription of key inducible EMT/CSC genes (laminin-5, uPAR, CD44) ([3]; 1 μM): inhibits transcription of key inducible EMT/CSC genes
CD44 high CD24 low CSC-like subpopulation (FACS) [8]: inhibits CD44 high CD24 low-CSC-like subpopulation
transcription of key inducible EMT/CSC genes (laminin-5, uPAR, CD44) [9]: inhibits transcription of key inducible EMT/CSC genes
EMT (morphology) [10]: inhibits EMT
mammosphere formation [11]: reduce mammosphere formation
binding of PKC-θ on the CD44 gene promoter (ChIP) ([12]; as worded in Example 4): reduction of binding of PKC-θ on the CD44 gene promoter
PKC-θ chromatin association across the uPAR promoter (ChIP) ([12]; bisindolylmaleimide-I 1 μM 1 hr pre-incubation, or siRNA 48 hrs, then PMA 60 hrs): reduces its chromatin association across the uPAR promoter
CD44 high CD24 low CSC-like subpopulation (FACS) [2]: only very high concentration of bisindolylmaleimide-I

SMILES: Cn1c2ccccc2c2c3c(c4c5ccccc5n(CCC#N)c4c21)CNC3=O [Go6976]
PMA-induced EMT-like morphological changes ([1]; pre-incubation with Go6976): did not prevent PMA-induced EMT-like morphological changes
transcription of key inducible EMT/CSC genes (laminin-5, uPAR, CD44) ([3]; 1 μM): failed to inhibit transcription of key inducible EMT/CSC genes
CD44 high CD24 low CSC-like subpopulation (FACS) [2]: but not Go 6976 inhibits
PMA-induced CSC formation ([2]; pre-incubation with Go6976): did not prevent

Reference: US10124001B2, “Stem cell modulation II” (University of Canberra, priority 2013, dated 2018)
